US6627664B2, “Perylenequinones for use as sonosensitizers” (Altachem Pharma Ltd., priority 2001, dated 2003)
Read-outs that look alike come from different tables or passages of the source. Marks after values point to notes of the source that are not given here.

Experiments:
[1] = system: cell lines; details: tone-burst and pulsed ultrasound; cited from earlier work
[2] = system: uterine cervical squamous cell carcinomas; details: with ultrasound; cited from earlier work
[3] = system: cells; details: for Photopotentiation Factor: LD50 dark divided by LD50 light; for LD50 Light: light dose not fixed, 0.75-1.0 J/cm2 of 630 nm light; for cell killing with light: wavelengths between at least 630 and 688 nm
Source text: As used herein, “photopotentiation factor” refers to the property of the compound(s) to exert light- or sound-mediated toxicity in excess of its (their) inherent unactivated toxicity. […] Where the term “LD50” has been used above, the term “IC50” may be substituted, to address the bioassays that concern metabolic activity rather than the endpoint of lethality, loss of reproductive capability, or clonogenic death. The relative photoactivation efficiency of a compound may also be determined using a clonogenic assay, an assay that is well known to those skilled in the art.
In accordance with the present invention, a desirable PQP derivative is one that is non-toxic (or of low toxicity) at high drug concentrations without activation, i.e., without light (also referred to as “dark”), and/or without sound, and is toxic at low concentrations when light of the appropriate wavelength, or sound of the appropriate frequency, is applied. As is recognized by those skilled in the art, the most desirable compounds are those that provide a wide range of non-toxic doses in an unactivated state, as this characteristic provides an increased safety factor for the patient.

[4] = Light absorption properties (red spectral region, 630 nm); format: physicochemical; details: for A630: absorbance at 630 nm
[5] = Singlet oxygen (1O2) yield; format: physicochemical
[6] = system: EMT6/Ed cells
[7] = system: HL-60 cells; assay: Sonodynamic toxicity (insonation, surviving fraction); format: cell-based, human; details: for maximum sonotoxic effect: 100 μM to 1000 μM, versus 1000 μM Hp control; for sonotoxicity: up to 100 μM
Experimental: Sonodynamic toxicity of two perylenequinone derivatives in human promyelocytic leukemia cells in vitro, with respect to a positive control, hematoporphyrin at 1 mM.
HL-60 cells were treated with perylenequinone sensitizers and insonated as described above. The surviving fractions were plotted against sensitizer concentration. […] Cell survival decreased steeply over the next two decades of sensitizer concentration.

[8] = system: sarcoma 180 cells; details: cited from earlier work; for rate of ultrasound-induced cell damage: 80 μM, insonated, versus ultrasound alone
[9] = insonated solutions, TMPone; cited from earlier work
[10] = same concentration as Hp; cited from earlier work
[11] = system: EMT6/Ed tumors; assay: EMT6/Ed tumor control after 630 nm light applied transcutaneously; format: in vivo, Balb/c mice; details: 50 μmol/kg body weight
Experimental: Both the concentration of drug and the dosage of light are important for treatment of tumors.
EMT6/Ed tumor control in Balb/c mice following various doses of 630 nm light applied transcutaneously. HBEA-R1 was administered at a fixed dose. True control represents animals given neither photosensitizer nor laser light. The animals were treated approximately 7 days following tumor implantation, and euthanized when tumors reached four times treatment volume.

[12] = system: EMT6/Ed cells; assay: Propidium iodide determination of apoptotic nuclei; format: cell-based
Source text: The background frequency of cells with apoptotic morphology is represented by the untreated control.

[13] = system: cell suspension; assay: Oxygen dependency of phototoxicity; format: cell-based; details: total absence of oxygen
Source text: Phototoxicity diminishes as the pO2 in the gas phase of the cell suspension is reduced for PDT treatment, from ambient to 0.0%. The oxygen enhancement ratio (O.E.R.) Is 4.0 at the D0.

[14] = system: EMT6/Ed cells; assay: Cellular uptake by 14C-labeling and confocal laser scanning microscopy; details: CLSM
[15] = system: sarcoma 180 cells; details: 56 mg/kg administered before insonation; cited from earlier work

Compound | LD50 Dark [3] [µM] | Photopotentiation Factor [3] | LD50 Light [3] [µM] | Abs. Peak in red Spectral region [4] | ^1O2 Yield [5] | LD50 Dark ([3]; without light) [µM] | Extinction Coefficient (× 10^−3) (630 nm) [4] | A630 [4] | further results
CCOC(=O)NC1=C(N2CC2)C(=O)C(NC(=O)OCC)=C(N2CC2)C1=O [diaziquone] |  |  |  |  |  |  |  |  | effect in combination with ultrasound on cytotoxicity [1]: synergistic effects; antitumour effect measured by volume reduction [2]: significant antitumour effect
2-morpholino-ethyl-aminated-HB [HBAM-R1] | >25 | >6.25 | 4 | 658 nm | 0.70 |  |  |  | 
COc1cccc2c1C(=O)c1c(O)c3c(c(O)c1C2=O)C[C@@](O)(C(=O)CO)C[C@@H]3O[C@H]1C[C@H](N)[C@H](O)[C@H](C)O1 [doxorubicin] |  |  |  |  |  |  |  |  | antitumour effect measured by volume reduction [2]: significant antitumour effect
2-(N,N-dimethyl-amino) propylamine-HB [HBDP-R1] |  | >16.6-50 | 0.5 to 1.5 |  | 0.42 | >25 |  |  | toxicity (in words) [3]: average or lower than average toxicity
Hypocrellin B [HB, reference compound] |  | 10-13 | 1.5 to 2 | 658* nm | 0.74 | 20 | 1.00 × 10^−3 | 0.100 | Amax/solvent ([4]; solvent DMF): 0.118/DMF; cytotoxicity under uptake conditions [6]: not cytotoxic; time until cellular uptake reached equilibrium [6]: ≤ 15 min
Deacetylated-HA [DAHA] | >25 |  | >5 | 622 nm | 0.51 |  | 5.70 × 10^−3 | 0.570 | 
HB-Mg^++ | 10 | 10 | 1 | 622 nm | 0.53 |  | 5.27 × 10^−3 | 0.527 | Amax/solvent ([4]; solvent EtOH): 0.604/EtOH
2-(N,N-diethyl-amino) ethylamine-HB [HBDD-R2] |  | >3.3 | 7.5 |  | 0.36 |  |  |  | 
5,8-dibromo-HB [DBHB] | 10 | 3.3 | 3 |  | 0.62 |  |  |  | maximum sonotoxic effect [7]: comparable to that of the Hp control; sonotoxicity [7]: negligible sonotoxicity
CCCCCCCCCCOC(C)C1=C(C)c2cc3[n-]c(cc4[n-]c(cc5nc(cc1n2)C(C)=C5C(C)OCCCCCCCCCC)c(C)c4CCC(=O)NC(CC(=O)[O-])C(=O)[O-])c(CCC(=O)NC(CC(=O)[O-])C(=O)[O-])c3C.[Ga+3].[H+].[H+].[H+] (stereo not drawn) [ATX-70, 2,4-bis(1-decyloxyethyl)-Ga(lll)-1,3,5,8-tetramethylporphryin-6,7-dipropionyl diaspartic acid] |  |  |  |  |  |  |  |  | rate of ultrasound-induced cell damage [8]: in excess of four times; levels of nitroxide relative to solutions containing Hp [9]: 2.5 times; ultrasound induced bleaching relative to Hp [10]: three times as great
Ethanolamine-HB [HBEA-R1] |  | 100-167 | 0.15 |  | 0.60 | 15 to 25 |  |  | cell killing with light [3]: capable of killing cells; cure rate ([11]; 50 Joules of 630 nm light): 40%; tumor cure ([11]; 100 Joules of 630 nm light): approximately 90%; cure rates ([11]; lower light dosages): significantly lower; apoptotic morphology ([12]; PDT, within 48 hours of treatment): 50%; induction of apoptosis by sensitizer alone ([12]; photosensitizing concentrations, no light): do not induce apoptosis; phototoxicity without oxygen [13]: Evidence of type 1—mediated phototoxicity; time until uptake is complete [14]: ≤ 2 h
C=Cc1c(C)c2cc3nc(c4c5[nH]c(cc6nc(cc1[nH]2)C(C)=C6CC)c(C)c5C(=O)[C@@H]4C(=O)OC)[C@@H](CCC(=O)O)[C@@H]3C [Ph-A, Pheophorbide A] |  |  |  |  |  |  |  |  | rate of ultrasound-induced cell damage [8]: double; tumor growth [15]: completely inhibited tumor growth
Ethylenediamine-HB [HBED-R2] |  | 5-8.3 | 3 to 5 |  |  |  |  |  | 
Hypocrellin A [HA, reference compound] |  | 3-5 | 3 to 5 | 658* nm | 0.84 | 15 | 0.86 × 10^−3 | 0.086 | Amax/solvent ([4]; solvent DMF): 0.093/DMF
HA-Mg^++(Ac2) | >25 |  | >5 | 616 nm | 0.71 |  | 4.47 × 10^−3 | 0.447 | Amax/solvent ([4]; solvent EtOH): 0.958/EtOH
Ethanolamine-HB [HBEA-R2] |  | 3.3 | 7.5 |  | 0.70 | 25 |  |  | 
COc1cccc2c1C(=O)c1c(O)c3c(c(O)c1C2=O)CC(O)(C(=O)COC(=O)CCCCCC(=O)O)CC3OC1OC(C)C(O)C(O)C1F (stereo not drawn) [FAD 104, 3′-deamino-2′-fluoro-3′-hydroxydoxorubicin-14-pimelate] |  |  |  |  |  |  |  |  | rate of ultrasound-induced cell damage [8]: doubled; cell damage with compound alone ([8]; no ultrasound): no cell damage
Cystamine-HB [HBAC-R2] |  | 2.5 | 5 | 600 nm | 0.31 | 12.5 | 2.44 × 10^−3 | 0.244 | Amax/solvent ([4]; solvent DMSO): 0.337/DMSO
Methylamine-HB [HBMA-IV] |  | 8.5 | 1 |  |  |  |  |  | 
n-butylaminated HB [HBBA-R2] | >100 | 167-500 | 0.2 to 0.6 | 616* nm | 0.32 |  | 6.19 × 10^−3 | 0.619 | cell killing with light [3]: capable of killing cells; Amax/solvent ([4]; solvent CHCl3): 0.628/CHCl3
demethylated HB [DMHB] | >25 | >5-8.3 | 3 to 5 | 648* nm | 0.42 |  | 4.77 × 10^−3 | 0.477 | Amax/solvent ([4]; solvent EtOH): 0.469/EtOH; maximum sonotoxic effect [7]: comparable to that of the Hp control; sonotoxicity [7]: negligible sonotoxicity
Cystamine-HB [HBAC-R1] |  | 12.5 | 1 | 646 nm | 0.40 | 12.5 | 3.88 × 10^−3 | 0.388 | Amax/solvent ([4]; solvent CHCl3): 0.417/CHCl3
